# US20210299150A1, “AP39 IMPACT ON MITOCHONDRIA, METABOLISM, GENE TRANSCRIPTION REGULATION, CARDIOTOXICITY PROTECTION AND CANCER TREATMENT” (priority 2020, published 2021)
# Tests used:
# H9C2 cells [1] = experiment: Crystal violet staining of H9C2 cells, Dox toxicity; type: cell-based, Rat
# Experimental: (§1) AP39 treatment also ameliorated Dox toxicity in a model of Rat cardiomyoblast cell line, H9C2. […] There was a narrow window of protection, as 30 μM and 50 μm doses were not as strong as the 40 μM dose (FIGS. 5A and B) in conferring protection. […] Note that Dox caused an apoptotic phenotype in correlation with ROS levels (FIG. 5F, Dox lane). This in vitro AP39 protection is modest when compared to the in vivo scenario. This difference may be due to rapid clearance of toxic metabolites (for instance, higher lactate production, FIG. 10D) and better oxygen supply (AP39 stimulated OCR, FIG. 7C) in vivo and lack of such sophistication in vitro.
# (§2) Crystal Violet (CV) assay. For the CV Staining assay, cells were stained with 0.5% crystal violet in 30% ethanol for 10 minutes at room temperature after removal of the medium. The cells were lysed in a 1% SDS (sodium dodecyl sulfate) solution. The absorbance of the solution was measured using a spectrophotometer at a wavelength of 595 nm. FIG. 27.
# H9C2 cells [2] = experiment: Mitochondrial ROS, MitoSox Red, H9C2; type: cell-based, Rat; settings: H9C2, AP39 and Dox co-treatment
# Experimental: as §1
# [3] = Oxygen Consumption Rate (OCR); type: cell-based; settings: AP39, not significantly different in the presence of Dox
# Source text: AP39 enhanced AMPK activation (A and B) and produced shorter isoform of Opa1, i.e. no longer isoform of Opa1. Oxygen consumption rates (OCR) with different treatments. […] Note AMPK substrate ACC phosphorylation.
# It is possible that AP39 relies mostly on increased energy efficiency rather than on improving OCR after Dox treatment.
# [4] = test system: Myc/Max-regulated transcripts; experiment: RNAseq analysis in H9C2 cell line; type: cell-based, Rat
# Experimental: The coverage among groups are indicated.
# Next, to interrogate mechanisms of AP39 protection against DIC, RNAseq analysis was performed. There was sufficient coverage of the whole transcriptome among the groups (FIG. 8A).
# [5] = 13C-glucose isotope tracing and GC-MS metabolite quantification; type: cell-based
# Experimental: Stable isotope (13C glucose) tracer studies. Heatmap.
# (§3) To this end, 13C-glucose flux/isotope tracing and quantified metabolites through GC-MS were examined at 16 hrs and 24 hrs after the treatments. Glucose, glutamine and lactate were also measured in supernatants at these time points. […] With the exception of glycolytic metabolites, the remaining metabolic pathways (poor labeling) were non-operational after Dox treatment (FIG. 10A).
# When considered AP39-mediated activation of AMPK, H2S is selectively halting energy consuming anabolic pathways, such as protein synthesis (also, lipid, AMPK inhibits […], a rate limiting lipid synthesizing enzyme, FIGS. 7A and B), as observed before^41, thus leading to accumulation of amino acids and is enhancing TCA cycle through AMPK activation. The net result is better energy management with AP39/H2S treatment.
# [6] = Glucose, glutamine and lactate in cell culture supernatants; type: cell-based
# Experimental: Quantification of glutamine, glucose and lactate in the cell culture supernatants at 16 and 24 hrs. n=3; p<0.05 or 0.01 (2 symbols); * vs Cont; # vs Dox at 16 hrs; and $ vs Cont; ^ vs Dox at 24 hrs.
# as §3
# However, AP39 treatments caused dominant effects in glucose utilization (1.5 fold increase vs Dox at 24 hrs) and lactate production. Such high lactate production is one of the main reasons behind the modest in vitro protective ability of AP39 against Dox (FIG. 5), which is in contrast to the in vivo scenario (FIGS. 3 and 4). Thus, metabolomics and transcriptomic approaches led to better understanding of the protective function of AP39.
# hiPSC-CMs = experiment: DIC in hiPSC-CMs (Annexin V, MitoSox Red); type: cell-based, human
# [7] = test system: SK-N-BE(2) neuroblastoma cell line; experiment: Cell viability (images, MTT) of SK-N-BE(2) neuroblastoma cell line; type: cell-based, human
# Experimental: (§4) Methods for cell viability: Cells were plated in 96 wells/6 wells cell culture plates. After 24 hrs of plating, the treatments (added in the growth medium) were conducted. The following assays were performed after 24 hrs of the treatments (day 2). (FIGS. 15A, 17-20, 24-27)
# (§5) MTT assay methods. For the MTT assay, […] of 5 mg/ml MTT-tetrazolium salts in PBS was added to each well containing the growth medium. After 3 hours of incubation, the medium was removed and the formazan crystals were dissolved by adding DMSO. The absorption of the formazan solution was measured using a spectrophotometer at a wavelength of 570 nm. FIGS. 15B, 21-22.
# The SK-N-BE(2) neuroblastoma cell line was exposed to control, AP39 (AP) at 40 or 60 μM, Doxorubicin at 2.5 or 20 μM, thiolactate at 10 mM, AP39 and Doxorubicin, AP39 and thiolactate, or Doxorubicin and Thiolactate. […] FIGS. 17, 21, 24-25.
# [8] = test system: 786-O cells renal cancer cells; experiment: Cell viability of 786-O renal cancer cells; type: cell-based
# Experimental: as §4, §5
# 786-O cells renal cancer cells were exposed to control, AP39 (AP) at 40 or 60 μM, Doxorubicin at 2.5 or 20 μM, thiolactate at 10 mM, AP39 and Doxorubicin, AP39 and thiolactate, or Doxorubicin and Thiolactate. […] FIGS. 18 and 21.
# H1299 lung cancer cells = experiment: Cell viability of H1299 lung cancer cells; type: cell-based
# Experimental: as §4, §5
# H1299 lung cancer cells were exposed to control, AP39 (AP) at 40 or 60 μM, Doxorubicin at 2.5 or 20 μM, thiolactate at 10 mM, AP39 and Doxorubicin, AP39 and thiolactate, or Doxorubicin and Thiolactate. […] FIGS. 20-22.
# MCF7 breast cancer cells = experiment: Cell viability (MTT, crystal violet) of MCF7 breast cancer cells; type: cell-based
# Experimental: as §4, §5, §2
# MCF7 breast cancer cells were exposed to control, AP39 (AP) at 40 or 60 μM, Doxorubicin at 2.5 or 20 μM, thiolactate at 10 mM, AP39 and Doxorubicin, AP39 and thiolactate, or Doxorubicin and Thiolactate. […] FIGS. 26-27.
# [9] = AP39 40 or 60 μM, thiolactate 10 mM, 24 hrs
# [10] = combination with Doxorubicin 2.5 μM
compound,measurement,setting,value
O=C(CCCCCCCCC[P+](c1ccccc1)(c1ccccc1)c1ccccc1)Oc1ccc(-c2cc(=S)ss2)cc1.[Br-] [AP39],"protection against Dox toxicity, crystal violet staining","H9C2 cells [1]; H9C2, AP39 with Dox",significant protection
same,AP39 dose conferring strongest protection (30 and 50 not as strong),"H9C2 cells [1]; H9C2, crystal violet, with Dox",40 µM
same,ROS in mitochondria (MitoSox Red),H9C2 cells [2],significant amelioration of ROS in mitochondria
same,Oxygen Consumption Rate (OCR),[3],suppressed OCR
same,"abnormal transcriptional changes induced after Dox treatment, global level (RNAseq)","[4]; H9C2, AP39+Dox",significantly reversed abnormal transcriptional changes
same,Myc transcription,"[4]; H9C2, AP39 with Dox",restored Myc transcription
same,Serine and glycine 13C labeling,[5]; 16 hrs and 24 hrs,suppressed
same,accumulation of TCA metabolites during Dox treatment,[5]; AP39 with Dox,attenuated accumulation of TCA metabolites
same,amino acid accumulations during Dox treatment,[5]; AP39 with Dox,not effective in preventing many amino acid accumulations
same,"13C labeling of TCA cycle metabolites (citrate, malate, alpha-ketoglutarate, fumarate)","[5]; AP39 with or without Dox, 16 hrs and 24 hrs",highly labeled
same,glutamine utilization (supernatants),[6]; compared to control,suppressed glutamine utilization
same,lactate production,[6]; supernatants,potent inducer of lactate production
same,glucose utilization,"[6]; supernatants, at 24 hrs",1.5 fold increase vs Dox
same,DIC in hiPSC-CMs,"hiPSC-CMs; 4 μM AP39 with 7.5 μM Dox, 48 hrs",attenuated DIC
same,tolerance of hiPSC-CMs to AP39,"hiPSC-CMs; 40 μM AP39, compared with H9C2 cells",greater susceptibility
same,level of apoptosis (Annexin V) and mitochondrial ROS (MitoSox Red),"hiPSC-CMs; hiPSC-CMs, AP39 with Dox",attenuated with AP39 treatment
same,"cell killing, agent alone",[7]; [9],able to kill SK-N-BE(2) cells
same,potency of low doses of Doxorubicin,[7]; [10],able to increase the potency of low doses of Doxorubicin
same,reduction of Dox IC value by AP39,[7]; vs original IC70,~8 fold
same,"cell killing, agent alone",[8]; [9],able to kill renal cancer cells
same,potency of low doses of Doxorubicin,[8]; [10],able to increase the potency of low doses of Doxorubicin
same,"cell killing, agent alone",H1299 lung cancer cells; [9],able to kill lung cancer cells
same,potency of low doses of Doxorubicin,H1299 lung cancer cells; [10],able to increase the potency of low doses of Doxorubicin
same,"cell killing, agent alone",MCF7 breast cancer cells; [9],able to kill breast cancer cells
same,potency of low doses of Doxorubicin,MCF7 breast cancer cells; [10],able to increase the potency of low doses of Doxorubicin
